Each structure is given as a SMILES string.

The test system of one assay is TMD-8 cells. As to the kind of experiment: Cell proliferation assay (CellTiter-Glo), TMD-8. The format is cell-based. The settings on record: 5-day treatment; read-out: TMD8 cells growth IC50. The method, then: Cell proliferation assay: TMD-8 and SU-DHL-1 cells were maintained at 37° C. in a humidified atmosphere with 5% CO2 in the recommended medium and serum concentrations. For cell proliferation assay, cells were seeded in 96-well pates at a density of 5,000 to 10,000 cells per well and cultured overnight at 37° C. in recommended medium supplemented with 5-10% FBS. On the next day, the test articles at various concentrations or vehicle control (0.5% DMSO) were added into cell culture. After 5-day treatment, the growth of cells was assayed by the CellTiter-Glo® Luminestceaent Cell Viability Assay (Promega). IC50 values were calculated using GraphPad Prism by plotting the logarithm of the concentration versus percent inhibition of cell growth as compared with the vehicle control.
Usually IC50 stands for the concentration that gives 50% inhibition. As for `CN(C)C/C=C/C(=O)N1CC(Cn2cc(-c3ccc(Oc4ccccc4)cc3)c3c(N)n[nH]c(=O)c32)C1` [Example 47, 4-amino-1-[[1-[(E)-4-(dimethylamino)but-2-enoyl]azetidin-3-yl]methyl]-3-(4-phenoxyphenyl)-6H-pyrrolo[2,3 d]pyridazin-7-one], the concentration for half-maximal inhibition (IC50) was no more than 10 nM.

With `CN(C)C/C=C/C(=O)NC1C2CCC1CC(n1cc(-c3ccc(Oc4ccccc4)cc3)c3c(N)n[nH]c(=O)c31)C2` (stereo not shown) [Example 48, (E)-N-[3-[4-amino-7-oxo-3-(4-phenoxyphenyl)-6H-pyrrolo[2,3 d]pyridazin-1-yl]-8-bicyclo[3.2.1]octanyl]-4-(dimethylamino)but-2-enamide], the IC50 lay in the range of 10 to 1000 nM.

Staying with this assay, now noted: Homo sapiens, TMD8, 120 h; 5-day treatment; read-out: TMD8 cells growth IC50.
For the compound `CN(C)C/C=C/C(=O)N1CCC[C@H]1Cn1cc(-c2ccc(Oc3ccccc3)cc2)c2c(N)n[nH]c(=O)c21` [Example 41, 4-amino-1-[[(2S)-1-[(E)-4-(dimethylamino)but-2-enoyl]pyrrolidin-2-yl]methyl]-3-(4-phenoxyphenyl)-6H-pyrrolo[2,3-d]pyridazin-7-one], the half-inhibitory concentration (IC50) lay in the range of 10 to 1000 nM.

For `CN(C)C/C=C/C(=O)N1CCC(Cn2cc(-c3ccc(Oc4ccccc4)cc3)c3c(N)n[nH]c(=O)c32)C1` (stereo not shown) [Example 43, 4-amino-1-[[1-[(E)-4-(dimethylamino)but-2-enoyl]pyrrolidin-3-yl]methyl]-3-(4-phenoxyphenyl)-6H-pyrrolo[2,3-d]pyridazin-7-one], the IC50 lay within 10 to 1000 nM.

With `CN(C/C=C/C(=O)N1CCC[C@@H](n2cc(-c3ccc(Oc4ccccc4)cc3)c3c(N)n[nH]c(=O)c32)C1)C(=O)OC(C)(C)C` [Example 17], the IC50 was in the range of 10 to 1000 nM. Regarding `C=CC(=O)N1CCC[C@@H](n2cc(-c3ccc(Oc4c(F)cccc4Cl)cc3)c3c(N)n[nH]c(=O)c32)C1` [Example 78, (R)-1-(1-acryloylpiperidin-3-yl)-4-amino-3-(4-(2-chloro-6-fluorophenoxy)phenyl)-1H-pyrrolo[2,3-d]pyridazin-7(6H)-one], the IC50 was no more than 10 nM.

`C=CC(=O)N[C@H]1CC[C@@H](n2cc(-c3ccc(Oc4ccccc4F)cc3)c3c(N)n[nH]c(=O)c32)CC1` [Example 104, N-((1s,4s)-4-(4-amino-3-(4-(2-fluorophenoxy)phenyl)-7-oxo-6,7-dihydro-1H-pyrrolo[2,3-d]pyridazin-1-yl)cyclohexyl)acrylamide]: the half-inhibitory concentration (IC50) is no more than 10 nM. For `CN(C)C/C=C/C(=O)N1CCC[C@@H](n2cc(-c3ccc(Oc4ccccc4)cc3F)c3c(N)n[nH]c(=O)c32)C1` [Example 77, 4-amino-1-[(3R)-1-[(E)-4-(dimethylamino)but-2-enoyl]-3-piperidyl]-3-(2-fluoro-4-phenoxy-phenyl)-6H-pyrrolo[2,3-d]pyridazin-7-one], the half-maximal inhibitory concentration (IC50) is no more than 10 nM. As to `C=CC(=O)N1CCCC(n2cc(-c3ccc(Oc4cccc(Cl)c4)c(OC)c3)c3c(N)n[nH]c(=O)c32)C1` (stereo not shown) [Example 68, 1-(1-acryloylpiperidin-3-yl)-4-amino-3-(4-(3-chlorophenoxy)-3-methoxyphenyl)-1H-pyrrolo[2,3-d]pyridazin-7(6H)-one], the 50% inhibitory concentration (IC50) is no more than 10 nM.

As to `C=CC(=O)N1CC[C@@H](n2cc(-c3ccc(Oc4ccccc4F)cc3)c3c(N)n[nH]c(=O)c32)C1` [Example 106, (R)-1-(1-acryloylpyrrolidin-3-yl)-4-amino-3-(4-(2-fluorophenoxy)phenyl)-1H-pyrrolo[2,3-d]pyridazin-7(6H)-one], the IC50 is no more than 10 nM. Still for that read-out and setting: as for `C=CC(=O)N1CCCC(n2cc(-c3ccc(OC)cc3)c3c(N)n[nH]c(=O)c32)C1` (stereo not shown) [Example 51, 1-(1-acryloylpiperidin-3-yl)-4-amino-3-(4-methoxyphenyl)-1H-pyrrolo[2,3-d]pyridazin-7(6H)-one], the figure is 10 to 1000 nM; as for `CCN(CC)C/C=C/C(=O)N1CCC[C@@H](n2cc(-c3ccc(Oc4ccccc4)cc3)c3c(N)n[nH]c(=O)c32)C1` [Example 27, 4-amino-1-[(3R)-1-[(E)-4-(diethylamino)but-2-enoyl]-3-piperidyl]-3-(4-phenoxyphenyl)-6H-pyrrolo[2,3-d]pyridazin-7-one], no more than 10 nM. Same read-out and setting: under `C=CC(=O)N1CCCC(n2cc(-c3ccc(Oc4cccc(F)c4)cc3)c3c(N)n[nH]c(=O)c32)C1` (stereo not shown) [Example 62, 1-(1-acryloylpiperidin-3-yl)-4-amino-3-(4-(3-fluorophenoxy)phenyl)-1H-pyrrolo[2,3-d]pyridazin-7(6H)-one] stands no more than 10 nM; under `Nc1n[nH]c(=O)c2c1c(-c1ccc(Oc3ccccc3)cc1)cn2[C@@H]1CCCN(C(=O)C2CC2)C1` [Example 23, 4-amino-1-[(3R)-1-(cyclopropanecarbonyl)-3-piperidyl]-3-(4-phenoxyphenyl)-6H-pyrrolo[2,3-d]pyridazin-7-one], 10 to 1000 nM; under `C=CC(=O)N1CCC[C@@H](n2cc(-c3ccc(Oc4ccccc4Cl)cc3)c3c(N)n[nH]c(=O)c32)C1` [Example 70, (R)-1-(1-acryloylpiperidin-3-yl)-4-amino-3-(4-(2-chlorophenoxy)phenyl)-1H-pyrrolo[2,3-d]pyridazin-7(6H)-one], no more than 10 nM. Consider `N#CN1CCC[C@@H](n2cc(-c3ccc(Oc4ccccc4)c(F)c3)c3c(N)n[nH]c(=O)c32)C1` [Example 85, (R)-3-(4-amino-3-(3-fluoro-4-phenoxyphenyl)-7-oxo-6,7-dihydro-1H-pyrrolo[2,3-d]pyridazin-1-yl)piperidine-1-carbonitrile], for which the IC50 was no more than 10 nM. Still for that read-out and setting: under `CC#CC(=O)N1C[C@H](OC)[C@@H](n2cc(-c3ccc(Oc4ccccc4F)cc3)c3c(N)n[nH]c(=O)c32)C1` [Example 98, 4-amino-1-((3S,4S)-1-(but-2-ynoyl)-4-methoxypyrrolidin-3-yl)-3-(4-(2-fluorophenoxy)phenyl)-1H-pyrrolo[2,3-d]pyridazin-7(6H)-one and Enantiomer] stands 10 to 1000 nM.

Consider `CN(C)C/C=C/C(=O)Nc1cccc(-n2cc(-c3ccc(Oc4ccccc4F)cc3)c3c(N)n[nH]c(=O)c32)c1` [Example 92, (E)-N-[3-[4-amino-3-[4-(2-fluorophenoxy)phenyl]-7-oxo-6H-pyrrolo[2,3-d]pyridazin-1-yl]phenyl]-4-(dimethylamino)but-2-enamide], for which the IC50 is no more than 10 nM. On the same count and under the same terms, as for `CCC(=O)N1CCCC(n2cc(-c3ccc(Oc4ccccc4)cc3)c3c(N)n[nH]c(=O)c32)C1` (stereo not shown) [Example 19, 4-amino-3-(4-phenoxyphenyl)-1-(1-propionylpiperidin-3-yl)-1H-pyrrolo[2,3-d]pyridazin-7(6H)-one], the figure is 10 to 1000 nM. On to `C=CC(=O)N1CCC[C@@H](n2cc(-c3ccc(Oc4ccc(Cl)c(Cl)c4)c(OC)c3)c3c(N)n[nH]c(=O)c32)C1` [Example 72, (R)-1-(1-acryloylpiperidin-3-yl)-4-amino-3-(4-(3,4-dichlorophenoxy)-3-methoxyphenyl)-1H-pyrrolo[2,3-d]pyridazin-7(6H)-one], for which the IC50 lay in the range of 10 to 1000 nM. Turning to `CC#CC(=O)N1CC[C@@H](n2cc(-c3ccc(Oc4c(F)cccc4F)cc3)c3c(N)n[nH]c(=O)c32)C1` [Example 93, (R)-4-amino-1-(1-(but-2-ynoyl)pyrrolidin-3-yl)-3-(4-(2,6-difluorophenoxy)phenyl)-1H-pyrrolo[2,3-d]pyridazin-7(6H)-one], the half-inhibitory concentration (IC50) was no more than 10 nM.

In the case of `C=CC(=O)Nc1ccc(-n2cc(-c3ccc(Oc4ccccc4)cc3)c3c(N)n[nH]c(=O)c32)cc1` [Example 90, N-(4-(4-amino-7-oxo-3-(4-phenoxyphenyl)-6,7-dihydro-1H-pyrrolo[2,3-d]pyridazin-1-yl)phenyl)acrylamide], the IC50 is no more than 10 nM. Take `C=CC(=O)N1CCC[C@@H](n2nc(-c3ccc(Oc4ccccc4F)cc3)c3c(N)n[nH]c(=O)c32)C1` [Example 109, (R)-1-(1-acryloylpiperidin-3-yl)-4-amino-3-(4-(2-fluorophenoxy)phenyl)-1H-pyrazolo[3,4-d]pyridazin-7(6H)-one]: the IC50 was no more than 10 nM. On to `C=CC(=O)N1CCC[C@@H](n2cc(-c3ccc(Oc4ccccc4)cc3)c3c(N)n[nH]c(=O)c32)C1` [Example 1, (R)-1-(1-acryloylpiperidin-3-yl)-4-amino-3-(4-phenoxyphenyl)-1H-pyrrolo[2,3-d]pyridazin-7(6H)-one], for which the IC50 was no more than 10 nM. With `CN(C)C/C=C/C(=O)N1C[C@H](n2cc(-c3ccc(Oc4ccccc4)cc3)c3c(N)n[nH]c(=O)c32)CC(F)(F)C1` [Example 49, 4-amino-1-[(3R)-1-[(E)-4-(dimethylamino)but-2-enoyl]-5,5-difluoro-3-piperidyl]-3-(4-phenoxyphenyl)-6H-pyrrolo[2,3-d]pyridazin-7-one], the half-inhibitory concentration (IC50) lay in the range of 10 to 1000 nM. Take `CN(C)C/C=C/C(=O)N1CCCC(n2cc(-c3ccc(Oc4cccc(Cl)c4)cc3)c3c(N)n[nH]c(=O)c32)C1` (stereo not shown) [Example 67, 4-amino-3-[4-(3-chlorophenoxy)phenyl]-1-[1-[(E)-4-(dimethylamino)but-2-enoyl]-3-piperidyl]-6H-pyrrolo[2,3-d]pyridazin-7-one]: the IC50 fell in the range of 10 to 1000 nM. On to `Nc1n[nH]c(=O)c2c1c(-c1ccc(Oc3ccccc3)cc1)cn2[C@@H]1CCCN(C(=O)/C=C/CN2CCC2)C1` [Example 33, 4-amino-1-[(3R)-1-[(E)-4-(azetidin-1-yl)but-2-enoyl]-3-piperidyl]-3-(4-phenoxyphenyl)-6H-pyrrolo[2,3-d]pyridazin-7-one], for which the concentration for half-maximal inhibition (IC50) was no more than 10 nM. With `CNC/C=C/C(=O)N1CCC[C@@H](n2cc(-c3ccc(Oc4ccccc4)cc3)c3c(N)n[nH]c(=O)c32)C1` [Example 18, 4-amino-1-[(3R)-1-[(E)-4-(methylamino)but-2-enoyl]-3-piperidyl]-3-(4-phenoxyphenyl)-6H-pyrrolo[2,3-d]pyridazin-7-one], the 50% inhibitory concentration (IC50) is no more than 10 nM.

These data come from patent US10323037B2, “Aminopyridazinone compounds as protein kinase inhibitors” (Jiangsu Hengrui Medicine Co., Ltd., priority 2014, dated 2019).
